Counter-ions that a name gives are not always drawn. Like-named read-outs stand apart in the source and are kept apart here.
What was measured:
[1] = target: T1, native Rho (rhodanese) reporter enzyme (Bos taurus, UniProt P00586); assay: Native Rho enzymatic reporter counter-screen; type: biochemical
T1 sequence (P00586 2-297 limits assumed): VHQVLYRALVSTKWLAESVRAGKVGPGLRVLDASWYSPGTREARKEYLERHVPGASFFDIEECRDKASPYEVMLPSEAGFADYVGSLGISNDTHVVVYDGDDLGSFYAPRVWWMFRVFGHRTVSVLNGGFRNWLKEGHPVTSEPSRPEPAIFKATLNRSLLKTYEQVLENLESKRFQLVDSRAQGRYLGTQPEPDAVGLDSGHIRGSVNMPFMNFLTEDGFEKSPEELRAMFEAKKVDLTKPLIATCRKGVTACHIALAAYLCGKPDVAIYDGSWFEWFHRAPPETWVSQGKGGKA

[2] = target: T2, native MDH (malate dehydrogenase) reporter enzyme (Sus scrofa, UniProt P00346); assay: Native MDH enzymatic reporter counter-screen; type: biochemical
T2 sequence (P00346 25-338): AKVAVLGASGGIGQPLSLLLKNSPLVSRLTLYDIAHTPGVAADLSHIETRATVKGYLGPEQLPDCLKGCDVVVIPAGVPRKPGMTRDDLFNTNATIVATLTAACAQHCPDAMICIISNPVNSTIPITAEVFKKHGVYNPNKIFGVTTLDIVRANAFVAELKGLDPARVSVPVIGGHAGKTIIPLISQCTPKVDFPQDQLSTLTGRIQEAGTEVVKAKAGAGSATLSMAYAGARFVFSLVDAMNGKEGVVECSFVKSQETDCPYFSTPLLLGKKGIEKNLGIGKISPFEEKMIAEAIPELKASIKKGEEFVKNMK

[3] = target: human HSP60/10 chaperonin system (Homo sapiens, UniProt P10809); assay: HSP60/10-dMDH refolding assay; type: biochemical
Chain of human HSP60/10 chaperonin system (P10809 27-573): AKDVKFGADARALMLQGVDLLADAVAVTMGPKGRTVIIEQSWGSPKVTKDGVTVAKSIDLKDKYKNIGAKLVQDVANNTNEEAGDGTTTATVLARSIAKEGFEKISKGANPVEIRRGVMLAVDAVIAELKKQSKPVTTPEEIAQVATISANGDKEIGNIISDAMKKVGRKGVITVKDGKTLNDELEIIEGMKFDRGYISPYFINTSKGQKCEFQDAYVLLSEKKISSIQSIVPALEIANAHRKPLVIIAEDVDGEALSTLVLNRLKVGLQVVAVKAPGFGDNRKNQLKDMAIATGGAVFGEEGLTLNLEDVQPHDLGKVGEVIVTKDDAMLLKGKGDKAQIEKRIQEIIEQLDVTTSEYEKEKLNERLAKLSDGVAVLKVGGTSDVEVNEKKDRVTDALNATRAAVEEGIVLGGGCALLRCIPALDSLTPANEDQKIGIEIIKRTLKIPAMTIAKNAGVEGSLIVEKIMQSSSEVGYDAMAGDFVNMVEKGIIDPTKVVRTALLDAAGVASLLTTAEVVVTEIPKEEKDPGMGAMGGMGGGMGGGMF

GroEL ATPase = GroEL ATPase (Escherichia coli, UniProt P0A6F5); assay: biochemical
Chain of GroEL ATPase (P0A6F5 2-548): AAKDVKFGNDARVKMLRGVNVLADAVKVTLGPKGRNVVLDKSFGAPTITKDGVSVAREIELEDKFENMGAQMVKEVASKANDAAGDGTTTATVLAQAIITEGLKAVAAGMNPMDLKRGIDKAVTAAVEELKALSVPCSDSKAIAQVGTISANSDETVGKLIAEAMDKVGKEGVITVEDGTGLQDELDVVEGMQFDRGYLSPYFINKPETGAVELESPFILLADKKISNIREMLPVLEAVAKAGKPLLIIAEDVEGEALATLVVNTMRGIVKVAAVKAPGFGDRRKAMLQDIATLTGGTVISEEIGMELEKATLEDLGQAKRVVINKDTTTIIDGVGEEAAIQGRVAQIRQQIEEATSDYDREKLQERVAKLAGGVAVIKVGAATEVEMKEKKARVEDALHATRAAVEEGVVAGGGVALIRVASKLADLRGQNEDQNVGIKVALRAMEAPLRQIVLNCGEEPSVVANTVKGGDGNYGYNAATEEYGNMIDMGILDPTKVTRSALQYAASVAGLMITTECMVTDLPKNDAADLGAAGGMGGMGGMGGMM

[4] = target: T3, E. coli GroEL/ES chaperonin system (Escherichia coli, UniProt P0A6F5); assay: High-throughput screens of LOPAC and MicroSource Spectrum libraries; type: biochemical; details: both GroEL/ES-dMDH and GroEL/ES-dRho screens, single concentration
T3 sequence (P0A6F5 2-548): as above

[5] = target: T3, E. coli GroEL/ES chaperonin system; assay: biochemical
E. coli GroEL = E. coli GroEL (Escherichia coli, UniProt P0A6F5); assay: Isothermal Titration Calorimetry of suramin binding to GroEL; details: ITC, average of triplicate analyses
Chain of E. coli GroEL (P0A6F5 2-548): as above

[6] = target: T3, E. coli GroEL/ES chaperonin system; assay: biochemical; remark: listed apart in the source
[7] = Biochemical Assay IC50, GroEL/ES-mediated refolding of dMDH, dose-response

Structure (SMILES) | IC50 [1] | IC50 [2] | other results
CCCCCCCCCCCCCCCCC(C(=O)O)C(O)(CC(=O)O)C(=O)O (centres unmarked) [Compound 7, Agaric acid] | > 100 µM | > 63 µM | –
CCCCCCCCCCCCCCCC[N+](C)(C)C [Compound 11, Hexadecyltrimethylammonium bromide] | > 100 µM | > 63 µM | –
Cc1cc(C(C#N)c2ccc(Cl)cc2)c(Cl)cc1NC(=O)c1cc(I)cc(I)c1O (centres unmarked) [Compound 16, Closantel] | > 100 µM | – | –
O=c1c(O)c(-c2ccc(O)c(O)c2)oc2c(O)c(O)cc(O)c12 [Compound 18, Gossypetin] | – | > 63 µM | –
CCCCCCCCCCCCCCCC(=O)OC[C@H](O)[C@H]1OC(=O)C(O)=C1O [Compound 20, L-Ascorbyl palmitate] | – | > 63 µM | –
CC1=CC(=O)c2c(O)cccc2C1=O [Compound 21, Plumbagin] | – | > 63 µM | –
COc1cc(-c2ccc(/N=N/c3ccc4c(S(=O)(=O)O)cc(S(=O)(=O)O)c(N)c4c3O)c(OC)c2)ccc1/N=N/c1ccc2c(S(=O)(=O)O)cc(S(=O)(=O)O)c(N)c2c1O [Compound 22, Pontamine sky blue] | – | > 63 µM | IC50 [3]: 6.8 µM; IC50 (GroEL ATPase): > 250 µM
C=C(NC(=O)C(=C)NC(=O)c1csc(C2=N[C@@H]3c4csc(n4)[C@H]4NC(=O)c5csc(n5)[C@H]([C@](C)(O)[C@@H](C)O)NC(=O)[C@H]5CSC(=N5)/C(=C/C)NC(=O)[C@H]([C@@H](C)O)NC(=O)c5csc(n5)[C@]3(CC2)NC(=O)[C@H](C)NC(=O)C(=C)NC(=O)[C@H](C)NC(=O)[C@H]([C@@H](C)CC)N[C@@H]2C=Cc3c([C@H](C)O)cc(nc3[C@H]2O)C(=O)O[C@@H]4C)n1)C(N)=O [Compound 24, Thiostrepton] | > 100 µM | > 63 µM | –
CCCCC/C=C\C/C=C\C/C=C\C/C=C\CCCC(=O)O [Compound 27, Arachidonic acid] | > 100 µM | > 63 µM | –
Cc1ccc(C(=O)Nc2ccc(S(=O)(=O)O)c3cc(S(=O)(=O)O)cc(S(=O)(=O)O)c23)cc1NC(=O)c1cccc(NC(=O)Nc2cccc(C(=O)Nc3cc(C(=O)Nc4ccc(S(=O)(=O)O)c5cc(S(=O)(=O)O)cc(S(=O)(=O)O)c45)ccc3C)c2)c1 [Compound 28, Suramin] | > 100 µM | > 63 µM | inhibition cutoff in primary and secondary high-throughput screens [4]: did not meet the 50% inhibition cutoff; IC50 ([5]; Assay IC50, GroEL/ES-dMDH Refolding, Table 1): 8.1 µM; IC50 [5, 7]: 8.1 µM; IC50 ([5]; IC50 values for inhibiting GroEL/ES refolding functions, approximate, dMDH and dRho refolding assays together): 10 to 15 µM; Kd (E. coli GroEL): 21 µM; Log(Kd/μM) (E. coli GroEL): 1.31 ± 0.30; TΔS (E. coli GroEL): 4.15 ± 0.72 kcal/mol; ΔG (E. coli GroEL): -6.22 ± 0.41 kcal/mol; ΔH (E. coli GroEL): -2.07 ± 0.36 kcal/mol; ΔS (E. coli GroEL): 0.014 ± 0.002 kcal/mol·K; Stoichiometry n, Molecule : GroEL oligomer (E. coli GroEL; per GroEL tetradecamer, listed as Suramin (28)): 9.4 ± 0.6; Stoichiometry n, Molecule : GroEL monomer (E. coli GroEL; single-site binding model): 0.67 ± 0.05
CC[C@H](C)[C@H]1O[C@]2(C=C[C@@H]1C)C[C@@H]1C[C@@H](C/C=C(\C)[C@@H](O[C@H]3C[C@H](OC)[C@@H](O[C@H]4C[C@H](OC)[C@@H](O)[C@H](C)O4)[C@H](C)O3)[C@@H](C)/C=C/C=C3\CO[C@@H]4[C@H](O)C(C)=C[C@@H](C(=O)O1)[C@]34O)O2 [Compound 32, Abamectin (Avermectin b1a)] | > 100 µM | > 63 µM | –
CC[C@H](C)C1O[C@]2(C=C[C@@H]1C)C[C@@H]1C[C@@H](C/C=C(\C)[C@@H](O[C@H]3C[C@H](OC)[C@@H](O[C@H]4C[C@H](OC)[C@H](NC(C)=O)[C@H](C)O4)[C@H](C)O3)[C@@H](C)/C=C/C=C3\CO[C@@H]4[C@H](O)C(C)=C[C@@H](C(=O)O1)[C@]34O)O2 (some centres unmarked) [Compound 33, Eprinomectin] | > 100 µM | > 63 µM | –
C[C@H](CCC(=O)O)[C@H]1CC[C@H]2[C@@H]3CC[C@@H]4C[C@H](O)CC[C@]4(C)[C@H]3CC[C@]12C [Compound 38, Lithocholic acid] | > 100 µM | > 63 µM | –
C=C1CC[C@H](O)C/C1=C/C=C1\CCC[C@]2(C)[C@@H]([C@H](C)CCCC(C)C)CC[C@@H]12 [Compound 41, Cholecalciferol (vtamin D3)] | > 100 µM | > 63 µM | –
O=C(/C=C/c1ccc(O)cc1)c1ccccc1 [Compound 43, 4-Hydroxychalcone] | > 100 µM | > 63 µM | –
CC(COc1ccccc1)N(CCCl)Cc1ccccc1 (centres unmarked) [Compound 47, Phenoxybenzamine HCl] | > 100 µM | > 63 µM | –
CC[n+]1c(-c2ccccc2)c2cc(N)ccc2c2ccc(N)cc21 [Compound 51, Ethidium bromide] | – | > 63 µM | –
CC(C)n1c(/C=C/C(O)CC(O)CC(=O)O)c(-c2ccc(F)cc2)c2ccccc21 (centres unmarked) [Compound 60, Fluvastatin sodium] | > 100 µM | > 63 µM | IC50 [3]: > 100 µM; IC50 [6]: > 250 µM; IC50 [5, 7]: > 100 µM; IC50 (GroEL ATPase): > 250 µM

The next lines start with results.

IC50 [1] | IC50 [2] | Structure (SMILES) | other results
> 100 µM | > 63 µM | COc1ccc(-c2ccc3cc(C(=O)O)ccc3c2)cc1C12CC3CC(CC(C3)C1)C2 [Compound 3, Adapalene] | –
– | > 63 µM | COc1cc(/C=C/C(=O)CC(=O)/C=C/c2ccc(O)c(OC)c2)ccc1O [Compound 4, Curcumin] | –
> 100 µM | > 63 µM | C=CC1=C(C)c2cc3[nH]c(cc4nc(cc5[nH]c(cc1n2)c(C)c5CCC(=O)O)C(CCC(=O)O)=C4C)c(C)c3C=C [Compound 5, Protoporphyrin IX] | –
> 100 µM | > 63 µM | C=C(CC)C(=O)c1ccc(OCC(=O)O)c(Cl)c1Cl [Compound 6, Ethacrynic acid] | –
> 100 µM | – | O=C(O)C1=CC(=C(c2ccc(O)c(C(=O)O)c2)c2ccc(O)c(C(=O)O)c2)C=CC1=O [Compound 13, Aurintricarboxylic acid] | –
– | > 63 µM | CC1(C)CCC2=C(O1)c1ccccc1C(=O)C2=O [Compound 15, β-laphachone] | –
> 100 µM | – | Oc1c(Cl)cc(Cl)cc1Sc1cc(Cl)cc(Cl)c1O [Compound 29, Bithionol] | –
– | > 63 µM | CC1=CC(=O)c2ccccc2C1=O [Compound 30, Menadione] | –
– | > 63 µM | CN(C)c1ccc(C(=C2C=CC(=[N+](C)C)C=C2)c2ccc(N(C)C)cc2)cc1 [Compound 34, Crystal violet] | –
> 100 µM | > 63 µM | COc1ccc(C(=O)/C=C/c2ccccc2)cc1 [Compound 35, 4’-Methoxychalcone] | –
– | > 63 µM | O=C1c2ccccc2C(=O)c2c(O)c(O)cc(O)c21 [Compound 37, Purpurin] | –
> 100 µM | > 63 µM | CCc1oc2ccccc2c1C(=O)c1cc(Br)c(O)c(Br)c1 [Compound 40, Benzbromarone] | –
> 100 µM | > 63 µM | O=C(/C=C/c1ccccc1)c1ccc(O)cc1 [Compound 44, 4’-Hydroxychalcone] | –
> 100 µM | > 63 µM | Oc1ccc(Cl)cc1Cc1cc(Cl)ccc1O [Compound 45, Dichlorophen] | –
– | > 63 µM | C=C1CC[C@H](O)C/C1=C/C=C1\CCC[C@]2(C)[C@@H]([C@H](C)/C=C/[C@H](C)C(C)C)CC[C@@H]12 [Compound 46, Calciferol (Vtamin D2)] | –
– | > 63 µM | COc1cc(NC(C)CCCN)c2ncccc2c1 (centres unmarked) [Compound 49, Primiquine] | –
– | > 63 µM | Cc1cc2nc3c(=O)[nH]c(=O)nc-3n(C[C@H](O)[C@H](O)[C@H](O)COP(=O)(O)O)c2cc1C [Compound 50, Riboflavin-5-phosphate sodium salt] | –
> 100 µM | > 63 µM | CC[C@H]1OC(=O)[C@H](C)[C@@H](O[C@H]2C[C@@](C)(OC)[C@@H](O)[C@H](C)O2)[C@H](C)[C@@H](O[C@@H]2O[C@H](C)C[C@H](N(C)C)[C@H]2O)[C@](C)(O)C[C@@H](C)C(=O)[C@H](C)[C@@H](O)[C@]1(C)O [Compound 55, (−)-Erythromycin] | –
> 100 µM | > 63 µM | CCOc1nc2cccc(C(=O)O)c2n1Cc1ccc(-c2ccccc2-c2nnn[nH]2)cc1 [Compound 56, Candesartan] | –
> 100 µM | > 63 µM | CC(C)(C)NCC(O)c1ccc(O)c(CO)c1 (centres unmarked) [Compound 57, Albuterol] | –
> 100 µM | > 63 µM | CCCCN1CCC(COC(=O)c2cc(Cl)c(N)c3c2OCCO3)CC1 [Compound 59, SB 204070] | –

Reference: paper PMC6450568 (Bioorganic & medicinal chemistry letters, 2019)
